In ChEMBL document CHEMBL6134864, “Discovery of FLT3-ITD Inhibitor Clifutinib: A Novel Biphenylacetylene Urea Derivative in Clinical Trials for the Treatment of Relapsed/Refractory FLT3-ITD+ Acute Myeloid Leukemia” (J Med Chem, 2025):

Tests used:
MV4-11 = test: cells; details: Homo sapiens, MV4-11, 72 h
Description: Antiproliferative activity against human MV4-11 cells assessed as inhibition of cell growth incubated for 72 hrs by celltiter-glo luminescent cell viability assay

[1] = AUClast in rat plasma at 5 mg/kg, po measured up to 24 hrs by LC-MS/MS analysis; format: ADME, organism-based
[2] = Oral bioavailability in rat plasma at 5 mg/kg measured up to 24 hrs by LC-MS/MS analysis; format: ADME, organism-based
[3] = Cmax in rat plasma at 5 mg/kg, po measured up to 24 hrs by LC-MS/MS analysis; format: ADME, organism-based
[4] = Half life in rat plasma at 5 mg/kg, po measured up to 24 hrs by LC-MS/MS analysis; format: ADME, organism-based
[5] = Clearance in rat plasma at 5 mg/kg, po measured up to 24 hrs by LC-MS/MS analysis; format: ADME, organism-based
BaF3 [6] = test: cells; details: Mus musculus, BaF3, 72 h
BaF3 [7] = test: Antiproliferative activity against mouse BaF3 cells harbouring FLT3-ITD-D835V mutant assessed as inhibition of cell growth incubated for 72 hrs by celltiter-glo luminescent cell viability assay; format: functional, cell-based; details: BaF3, 72 h
BaF3 [8] = test: Antiproliferative activity against mouse BaF3 cells harbouring FLT3-ITD-N676D mutant assessed as inhibition of cell growth incubated for 72 hrs by celltiter-glo luminescent cell viability assay; format: functional, cell-based; details: BaF3, 72 h
BaF3 [9] = test: Antiproliferative activity against mouse BaF3 cells harbouring FLT3-ITD assessed as inhibition of cell growth incubated for 72 hrs by celltiter-glo luminescent cell viability assay; format: functional, cell-based; details: BaF3, 72 h
BaF3 [10] = test: Antiproliferative activity against wild type mouse BaF3 cells assessed as inhibition of cell growth incubated for 72 hrs by celltiter-glo luminescent cell viability assay; format: functional, cell-based; details: BaF3, 72 h
BaF3 [11] = test: cells; details: Mus musculus, BaF3, 72 h; remark: listed apart in the source
BaF3 [12] = test: Antiproliferative activity against mouse BaF3 cells harbouring FLT3-ITD-F691L mutant assessed as inhibition of cell growth incubated for 72 hrs by celltiter-glo luminescent cell viability assay; format: functional, cell-based; details: BaF3, 72 h
BaF3 [13] = test: Antiproliferative activity against mouse BaF3 cells harbouring FLT3-D835Y mutant assessed as inhibition of cell growth incubated for 72 hrs by celltiter-glo luminescent cell viability assay; format: functional, cell-based; details: BaF3, 72 h
BaF3 [14] = test: Antiproliferative activity against mouse BaF3 cells harbouring FLT3-ITD-Y842H mutant assessed as inhibition of cell growth incubated for 72 hrs by celltiter-glo luminescent cell viability assay; format: functional, cell-based; details: BaF3, 72 h
[15] = Antitumor activity against human […] cells harbouring FLT3-ITD xenografted in NOD/SCID mouse model assessed as tumor regression rate at 20 mg/kg/day, po measured for 8 days by caliper analysis relative to control; format: functional, MV4-11; details: time 8 day
BaF3 [16] = test: Antiproliferative activity against mouse BaF3 cells harbouring FLT3-ITD-Y842R mutant assessed as inhibition of cell growth incubated for 72 hrs by celltiter-glo luminescent cell viability assay; format: functional, cell-based; details: BaF3, 72 h
BaF3 [17] = test: cells; details: Mus musculus, BaF3, 72 h; remark: listed apart in the source
BaF3 [18] = test: cells; details: Mus musculus, BaF3, 72 h; remark: listed apart in the source
BaF3 [19] = test: Antiproliferative activity against mouse BaF3 cells harbouring FLT3-ITD-D835I mutant assessed as inhibition of cell growth incubated for 72 hrs by celltiter-glo luminescent cell viability assay; format: functional, cell-based; details: BaF3, 72 h
BaF3 [20] = test: Antiproliferative activity against mouse BaF3 cells harbouring FLT3-ITD-D835Y mutant assessed as inhibition of cell growth incubated for 72 hrs by celltiter-glo luminescent cell viability assay; format: functional, cell-based; details: BaF3, 72 h
BaF3 [21] = test: cells; details: Mus musculus, BaF3, 72 h; remark: listed apart in the source
BaF3 [22] = test: Antiproliferative activity against mouse BaF3 cells harbouring FLT3-ITD-F691I mutant assessed as inhibition of cell growth incubated for 72 hrs by celltiter-glo luminescent cell viability assay; format: functional, cell-based; details: BaF3, 72 h
BaF3 [23] = test: Antiproliferative activity against mouse BaF3 cells harbouring FLT3-D835V mutant assessed as inhibition of cell growth incubated for 72 hrs by celltiter-glo luminescent cell viability assay; format: functional, cell-based; details: BaF3, 72 h
BaF3 [24] = test: cells; details: Mus musculus, BaF3, 72 h; remark: listed apart in the source
Description: Antiproliferative activity against mouse BaF3 cells harbouring FLT3-D83HY mutant assessed as inhibition of cell growth incubated for 72 hrs by celltiter-glo luminescent cell viability assay

hERG (KCNH2) = hERG (KCNH2) (Homo sapiens, UniProt Q12809); test: Inhibition of human ERG expressed in CHO cells at 30 uM by manual patch clamp assay relative to control; format: toxicity, cell-based; details: CHO cells expressing human ERG
Sequence of hERG (KCNH2) (Q12809 whole entry): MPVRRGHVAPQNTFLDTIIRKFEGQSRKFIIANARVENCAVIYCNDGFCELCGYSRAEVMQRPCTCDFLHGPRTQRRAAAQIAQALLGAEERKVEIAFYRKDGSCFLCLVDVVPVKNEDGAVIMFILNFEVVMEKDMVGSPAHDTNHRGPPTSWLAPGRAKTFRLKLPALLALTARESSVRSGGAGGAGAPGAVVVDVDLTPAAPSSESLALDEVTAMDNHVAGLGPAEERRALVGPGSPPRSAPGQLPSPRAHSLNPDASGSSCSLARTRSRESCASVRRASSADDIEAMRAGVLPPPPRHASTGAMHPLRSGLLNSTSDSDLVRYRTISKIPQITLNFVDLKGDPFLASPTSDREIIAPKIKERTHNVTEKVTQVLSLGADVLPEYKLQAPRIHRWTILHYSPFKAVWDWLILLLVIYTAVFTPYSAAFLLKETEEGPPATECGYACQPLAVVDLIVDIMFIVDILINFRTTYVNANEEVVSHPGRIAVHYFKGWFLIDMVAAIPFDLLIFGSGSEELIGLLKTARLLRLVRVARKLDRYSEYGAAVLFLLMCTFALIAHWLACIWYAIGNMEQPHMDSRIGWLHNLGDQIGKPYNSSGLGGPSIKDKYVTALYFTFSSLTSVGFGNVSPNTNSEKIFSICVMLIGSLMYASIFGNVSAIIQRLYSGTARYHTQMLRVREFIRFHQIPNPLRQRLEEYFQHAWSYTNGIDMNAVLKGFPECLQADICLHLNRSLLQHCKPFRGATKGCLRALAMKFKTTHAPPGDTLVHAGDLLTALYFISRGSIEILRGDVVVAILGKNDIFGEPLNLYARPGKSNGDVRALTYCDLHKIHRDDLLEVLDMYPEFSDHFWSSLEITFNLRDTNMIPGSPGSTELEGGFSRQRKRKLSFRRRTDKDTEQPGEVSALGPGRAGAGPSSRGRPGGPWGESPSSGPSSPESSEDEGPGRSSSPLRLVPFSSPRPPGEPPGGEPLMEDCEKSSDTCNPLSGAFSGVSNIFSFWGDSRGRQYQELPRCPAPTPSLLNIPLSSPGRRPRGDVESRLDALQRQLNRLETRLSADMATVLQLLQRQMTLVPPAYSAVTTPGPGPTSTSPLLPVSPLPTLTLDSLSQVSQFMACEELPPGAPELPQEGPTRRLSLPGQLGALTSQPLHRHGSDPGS

MOLM-13 = test: Antitumor activity against human MOLM-13 cells xenografted in NOD/SCID mouse model assessed as tumor growth inhibition at 50 mg/kg/day, po by caliper analysis relative to control; format: functional; details: read-out: TGI

| Compound | IC50 (MV4-11) [nM] | AUC(0-t) at 24 h [1] [ng·h/mL] | bioavailability [2] [%] | Cmax [3] [ng/mL] | half-life [4] [h] | CL/F [5] [mL/min/kg] | other results |
| --- | --- | --- | --- | --- | --- | --- | --- |
| CN(C)C1CCN(CCCOc2ccc(C#Cc3ccc(NC(=O)Nc4cc(C(C)(C)C)on4)cc3)cc2)CC1 | 8 | – | – | – | – | – | – |
| CN1CCN(CCCOc2ccc(C#Cc3ccc(NC(=O)Nc4cc(C(C)(C)C)on4)cc3)cc2)CC1 | 2.4 | 756 | 42 | 100 | 5.15 | 44.8 | – |
| CC(C)(C)c1cc(NC(=O)Nc2ccc(-c3cn4c(n3)sc3cc(OCCN5CCOCC5)ccc34)cc2)no1 [QUIZARTINIB] | 0.9 | 6320 | 57.6 | 741 | 5.22 | 7.33 | IC50 (BaF3 [6]): 3.1 nM; IC50 (BaF3 [7]): 112 nM; IC50 (BaF3 [8]): 5.5 nM; IC50 (BaF3 [9]): 0.8 nM; IC50 (BaF3 [10]): > 1000 nM; IC50 (BaF3 [11]): 1.6 nM; IC50 (BaF3 [12]): 102 nM; IC50 (BaF3 [13]): 3.6 nM; IC50 (BaF3 [14]): 28.8 nM; Activity [15]: 88.6%; IC50 (BaF3 [16]): 20.8 nM; IC50 (BaF3 [17]): 4.1 nM; IC50 (BaF3 [18]): 23.2 nM; IC50 (BaF3 [19]): 280 nM; IC50 (BaF3 [20]): 36 nM; IC50 (BaF3 [21]): 73.1 nM; IC50 (BaF3 [22]): 136 nM; IC50 (BaF3 [23]): 28.7 nM; IC50 (BaF3 [24]): 7.1 nM |
| CC(C)(C)c1cc(NC(=O)Nc2ccc(C#Cc3ccc(OCCCN4CCC5(COC5)C4)cc3)cc2)no1 | 13.8 | – | – | – | – | – | – |
| CC(C)(C)c1cc(NC(=O)Nc2ccc(C#Cc3ccc(OCCCN4CCOCC4)c(C(F)(F)F)c3)cc2)no1 | 17.7 | – | – | – | – | – | – |
| CC(C)(C)c1cc(NC(=O)Nc2ccc(C#Cc3ccc(OCCN4C[C@@H]5OCCO[C@@H]5C4)cc3)cc2)no1 | 1.1 | 6770 | 63.6 | 862 | 3.9 | 7.78 | – |
| CC(C)(C)c1cc(NC(=O)Nc2ccc(C#Cc3ccc(OCCCN4C[C@@H]5OCCO[C@@H]5C4)cc3)cc2)no1 | 3.1 | – | – | – | – | – | – |
| COc1cc(C#Cc2ccc(NC(=O)Nc3cc(C(C)(C)C)on3)cc2)ccc1OCCCN1CCOCC1 | 0.8 | 1270 | 40.8 | 194 | 3.55 | 26.8 | – |
| CC(C)(C)c1cc(NC(=O)Nc2ccc(C#Cc3ccc(OCCCN4CCOCC4)cc3)cc2F)no1 | 4.8 | – | – | – | – | – | – |
| CC(C)(C)c1cc(NC(=O)Nc2ccc(C#Cc3ccc(OCCCN4CCOCC4)cc3)cc2C#N)no1 | > 1000 | – | – | – | – | – | – |
| CN1CCN(CCOc2ccc(C#Cc3ccc(NC(=O)Nc4cc(C(C)(C)C)on4)cc3)cc2)CC1 | 1.6 | 534 | 48.4 | 133 | 2.06 | 68.2 | – |
| COc1cc(C#Cc2ccc(OCCCN3CCOCC3)cc2)ccc1NC(=O)Nc1cc(C(C)(C)C)on1 | 551 | – | – | – | – | – | – |
| CN(C)C1CCN(CCOc2ccc(C#Cc3ccc(NC(=O)Nc4cc(C(C)(C)C)on4)cc3)cc2)CC1 | 34.4 | – | – | – | – | – | – |
| CC(C)(C)c1cc(NC(=O)Nc2ccc(C#Cc3ccc(OCCN4CCOCC4)cc3)cc2)no1 | 1.4 | 1790 | 49.2 | 522 | 4.84 | 22.8 | – |
| Nc1ccn([C@@H]2O[C@H](CO)[C@@H](O)[C@@H]2O)c(=O)n1 [CYTARABINE] | – | – | – | – | – | – | inhibition in vivo at 50 mg/kg/day (MOLM-13): 36% |

The next lines start with results.

| IC50 (MV4-11) [nM] | AUC(0-t) at 24 h [1] [ng·h/mL] | bioavailability [2] [%] | Cmax [3] [ng/mL] | half-life [4] [h] | CL/F [5] [mL/min/kg] | Compound | other results |
| --- | --- | --- | --- | --- | --- | --- | --- |
| 4.6 | – | – | – | – | – | CC(C)(C)c1cc(NC(=O)Nc2ccc(C#Cc3ccc(OCCCN4CCOCC4)c(F)c3)cc2)no1 | – |
| 25.5 | – | – | – | – | – | CC(C)(C)c1cc(NC(=O)Nc2ccc(C#Cc3ccc(OCCCN4CCOCC4)cc3O)cc2)no1 | – |
| 5.2 | 11300 | 69.3 | 1370 | 5.86 | 4.83 | CC(C)(C)c1cc(NC(=O)Nc2ccc(C#Cc3ccc(OCCCN4CCOCC4)cc3F)cc2)no1 | inhibition at 30 µM (hERG (KCNH2)): 36.3% |
| 9.8 | – | – | – | – | – | CC(C)(C)c1cc(NC(=O)Nc2ccc(C#Cc3ccc(OCCCN4CCOCC4)c(Cl)c3)cc2)no1 | – |
| 1.9 | – | – | – | – | – | CC(C)(C)c1cc(NC(=O)Nc2ccc(C#Cc3cnn4c(OCCCN5CCOCC5)ccnc34)cc2)no1 | – |
| 426 | – | – | – | – | – | CC(C)(C)c1cc(NC(=O)Nc2ccc(C#Cc3ccc(OCCCN4CCOCC4)cc3Cl)cc2)no1 | – |
| > 1000 | – | – | – | – | – | CC(C)(C)c1cc(NC(=O)Nc2ccc(C#Cc3ccc(OCCCN4CCOCC4)cc3)nc2)no1 | – |
| 0.9 | – | – | – | – | – | CC(C)(C)c1cc(NC(=O)Nc2ccc(C#Cc3ccc(OCCCN4CCOCC4)c(O)c3)cc2)no1 | – |
